Where “and” joins values, the source holds several entries; their conditions need not be identical. Equal values may be shown once. Toxic doses and inconclusive results are not listed. Rule as the data show it: active = T/C of 150% or more; inactive = T/C below 125%.
System: L1210 leukemia ip in BDF1 mice, survival T/C
Test: NCI In Vivo Anticancer Drug Screen. Data for tumor model L1210 Leukemia (intraperitoneal) in B6D2F1 (BDF1) mice
Details: endpoint: mean survival time, higher = longer survival
Method in brief: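 Transplanted-tumor mice were given test agent; controls received vehicle only. Survival readings from the two groups were divided (treated over control).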

[1] = dose: 50.0 mg/kg/injection, schedule: Q01DX009 (ip), vehicle: Klucel (hydroxypropylcellulose) (HPC)
[2] = dose: 100.0 mg/kg/injection, schedule: Q01DX009 (ip), vehicle: Klucel (hydroxypropylcellulose) (HPC)
[3] = dose: 100.0 mg/kg/injection, schedule: Q01DX001 (ip), vehicle: saline
[4] = dose: 200.0 mg/kg/injection, schedule: Q01DX001 (ip), vehicle: saline
[5] = dose: 400.0 mg/kg/injection, schedule: Q01DX001 (ip), vehicle: saline
[6] = dose: 50.0 mg/kg/injection, schedule: Q04DX003 (ip), vehicle: Klucel (hydroxypropylcellulose) (HPC)
[7] = dose: 200.0 mg/kg/injection, schedule: Q01DX009 (ip), vehicle: Klucel (hydroxypropylcellulose) (HPC)
[8] = dose: 100.0 mg/kg/injection, schedule: Q01DX009 (ip), vehicle: saline with Tween-80
[9] = dose: 200.0 mg/kg/injection, schedule: Q01DX009 (ip), vehicle: saline with Tween-80
[10] = dose: 100.0 mg/kg/injection, schedule: Q04DX003 (ip), vehicle: saline with Tween-80
[11] = dose: 200.0 mg/kg/injection, schedule: Q04DX003 (ip), vehicle: saline with Tween-80
[12] = dose: 400.0 mg/kg/injection, schedule: Q01DX009 (ip), vehicle: saline with Tween-80
[13] = dose: 400.0 mg/kg/injection, schedule: Q04DX003 (ip), vehicle: saline with Tween-80
[14] = dose: 100.0 mg/kg/injection, schedule: Q04DX003 (ip), vehicle: saline
[15] = dose: 200.0 mg/kg/injection, schedule: Q04DX003 (ip), vehicle: saline

Measured: T/C

CC1(C)N=C(N)N=C(N)N1c1ccc2ccccc2c1
inactive: dose: 5.0 mg/kg/injection, schedule: Q01DX001 (ip), vehicle: other 105 % of control | dose: 10.0 mg/kg/injection, schedule: Q01DX001 (ip), vehicle: other 102 % of control | dose: 20.0 mg/kg/injection, schedule: Q01DX001 (ip), vehicle: other 96 % of control | dose: 25.0 mg/kg/injection, schedule: Q01DX015 (ip), vehicle: other 97 % of control | dose: 40.0 mg/kg/injection, schedule: Q01DX001 (ip), vehicle: other 105 % of control | dose: 50.0 mg/kg/injection, schedule: Q01DX015 (ip), vehicle: other 107 % of control | dose: 80.0 mg/kg/injection, schedule: Q01DX001 (ip), vehicle: other 100 % of control | dose: 100.0 mg/kg/injection, schedule: Q01DX001 (ip), vehicle: other 104 % of control

COc1cccc(O)c1/C=C/[N+](=O)[O-]
inactive: [1] 104 % of control | [2] 102 % of control

Cc1cc(N=C2C=C(Br)C(=O)C(Br)=C2)cc(CN(CC(=O)O)CC(=O)O)c1O
inactive: [3] 105 % of control | [4] 111 % of control | [5] 100 % of control

C=CCOP(=O)(OCC=C)OCC=C
inactive: [1] 97 % of control | [6] 99 % of control | [2] 97 % of control | dose: 100.0 mg/kg/injection, schedule: Q04DX003 (ip), vehicle: Klucel (hydroxypropylcellulose) (HPC) 91 % of control | [7] 98 % of control | dose: 200.0 mg/kg/injection, schedule: Q04DX003 (ip), vehicle: Klucel (hydroxypropylcellulose) (HPC) 93 % of control

Oc1ccc(Cl)cc1C(c1cc(Cl)ccc1O)C(Cl)(Cl)Cl
inactive: dose: 100.0 mg/kg/injection, schedule: Q04DX002 (ip), vehicle: saline + alcohol 99 % of control | dose: 200.0 mg/kg/injection, schedule: Q04DX002 (ip), vehicle: saline + alcohol 108 % of control | dose: 400.0 mg/kg/injection, schedule: Q04DX002 (ip), vehicle: saline + alcohol 102 % of control

CC1(C)N=C(N)N=C(N)N1c1ccc(OCCCOc2ccc(S(=O)(=O)F)cc2)c(Cl)c1
inactive: dose: 25.0 mg/kg/injection, schedule: Q01DX009 (ip), vehicle: saline 100 % of control

COc1ccc(/C=N/n2c3ccccc3c3ccccc32)cc1OCCN(C)C
inactive: dose: 3.12 mg/kg/injection, schedule: Q01DX009 (ip), vehicle: Klucel (hydroxypropylcellulose) (HPC) 96 % of control | dose: 6.25 mg/kg/injection, schedule: Q01DX009 (ip), vehicle: Klucel (hydroxypropylcellulose) (HPC) 101 % of control | dose: 12.5 mg/kg/injection, schedule: Q01DX009 (ip), vehicle: Klucel (hydroxypropylcellulose) (HPC) 97 % of control | dose: 25.0 mg/kg/injection, schedule: Q01DX009 (ip), vehicle: Klucel (hydroxypropylcellulose) (HPC) 102 % of control | dose: 25.0 mg/kg/injection, schedule: Q04DX003 (ip), vehicle: Klucel (hydroxypropylcellulose) (HPC) 98 % of control | [6] 96 % of control

O=C(NCCCCC(NC(=O)OCc1ccccc1)C(=O)Nc1ccc(Nc2ccc(NC(=O)C(CCCCNC(=O)OCc3ccccc3)NC(=O)OCc3ccccc3)cc2)cc1)OCc1ccccc1 (configuration not stated)
inactive: [3] 88 % of control | [4] 92 % of control | [5] 94 % of control

O=C(/C=C/C(=O)c1ccc(-c2ccccc2)cc1)c1ccc(-c2ccccc2)cc1
inactive: [1] 92 % of control | [2] 87 % of control | [7] 90 % of control | dose: 400.0 mg/kg/injection, schedule: Q01DX009 (ip), vehicle: Klucel (hydroxypropylcellulose) (HPC) 87 % of control

CC1(c2ccc(O)cc2)CCC(C(C)(C)c2ccc(O)cc2)CC1 (configuration not stated)
inactive: [8] 107 % of control | [9] 107 % of control

N#Cc1ccc(CCc2ccccc2)cc1
inactive: dose: 50.0 mg/kg/injection, schedule: Q01DX001 (ip), vehicle: saline 102 % of control | [3] 102 % of control | [4] 101 % of control | [5] 102 % of control

O=C1OC(=O)c2ccc(Sc3ccccn3)c3cccc1c23
inactive: dose: 100.0 mg/kg/injection, schedule: Q04DX003 (ip), vehicle: carboxymethylcellulose (CMC) 93 % of control | dose: 200.0 mg/kg/injection, schedule: Q04DX003 (ip), vehicle: carboxymethylcellulose (CMC) 88 % of control | dose: 400.0 mg/kg/injection, schedule: Q04DX003 (ip), vehicle: carboxymethylcellulose (CMC) 93 % of control

O=C(Nc1ccccc1)Nc1cc(C(F)(F)F)ccc1Cl
inactive: [8] 86 % of control | [10] 91 % of control | [11] 90 % of control | [12] 92 % of control | [13] 95 % of control

COc1ccc(/C=N/NC(=O)CNC(=O)c2ccc(Cl)cc2Cl)cc1OC
inactive: dose: 50.0 mg/kg/injection, schedule: Q01DX009 (ip), vehicle: saline with Tween-80 91 % of control | [8] 86 % of control | [9] 86 % of control

O=C(O)CCCCc1ccccc1
inactive: [8] 96 % of control | [10] 100 % of control | [9] 100 % of control | [11] 91 % of control | [12] 92 % of control | [13] 94 % of control

Nc1ccc2c(c1)-c1ccccc1C1=NCCN12
inactive: dose: 2.5 mg/kg/injection, schedule: Q04DX003 (ip), vehicle: Klucel (hydroxypropylcellulose) (HPC) 102 % of control | dose: 5.0 mg/kg/injection, schedule: Q01DX009 (ip), vehicle: Klucel (hydroxypropylcellulose) (HPC) 98 % of control | dose: 5.0 mg/kg/injection, schedule: Q04DX003 (ip), vehicle: Klucel (hydroxypropylcellulose) (HPC) 102 % of control | dose: 10.0 mg/kg/injection, schedule: Q01DX009 (ip), vehicle: Klucel (hydroxypropylcellulose) (HPC) 98 % of control | dose: 10.0 mg/kg/injection, schedule: Q04DX003 (ip), vehicle: Klucel (hydroxypropylcellulose) (HPC) 93 % of control | dose: 20.0 mg/kg/injection, schedule: Q01DX009 (ip), vehicle: Klucel (hydroxypropylcellulose) (HPC) 96 % of control | dose: 20.0 mg/kg/injection, schedule: Q04DX003 (ip), vehicle: Klucel (hydroxypropylcellulose) (HPC) 90 % of control

CC1=C/C(=N/NC(N)=O)CC(C)C1 (configuration not stated)
inactive: [14] 100 % of control | [15] 98 % of control | dose: 400.0 mg/kg/injection, schedule: Q04DX003 (ip), vehicle: saline 97 % of control

CCN(CC)c1cccc(OC(=O)NC)c1
inactive: dose: 0.75 mg/kg/injection, schedule: Q01DX009 (ip), vehicle: saline with Tween-80 91 % of control | dose: 1.5 mg/kg/injection, schedule: Q01DX009 (ip), vehicle: saline with Tween-80 94 % of control | dose: 3.0 mg/kg/injection, schedule: Q01DX009 (ip), vehicle: saline with Tween-80 94 % of control

COC1OC(n2cnc3ncn(Cc4ccccc4)c3c2=N)C2OC(C)(C)OC12 (configuration not stated)
inactive: [14] 97 % of control | [15] 92 % of control

O=C(Nc1ccc(C(=O)Nc2cc(S(=O)(=O)O)cc3cccc(S(=O)(=O)O)c23)cc1)Nc1ccc(C(=O)Nc2cc(S(=O)(=O)O)cc3cccc(S(=O)(=O)O)c23)cc1
inactive: dose: 37.5 mg/kg/injection, schedule: Q04DX003 (ip), vehicle: carboxymethylcellulose (CMC) 97 % of control | dose: 75.0 mg/kg/injection, schedule: Q01DX001 (ip), vehicle: carboxymethylcellulose (CMC) 93 % of control | dose: 75.0 mg/kg/injection, schedule: Q04DX003 (ip), vehicle: carboxymethylcellulose (CMC) 101 % of control | dose: 150.0 mg/kg/injection, schedule: Q01DX001 (ip), vehicle: carboxymethylcellulose (CMC) 105 % of control | dose: 150.0 mg/kg/injection, schedule: Q04DX003 (ip), vehicle: carboxymethylcellulose (CMC) 95 % of control

Cc1n[nH]c(C)c1N=NN1CCOCC1
inactive: dose: 10.0 mg/kg/injection, schedule: Q01DX001 (ip), vehicle: saline 100 % of control and 107 % of control | dose: 20.0 mg/kg/injection, schedule: Q01DX001 (ip), vehicle: saline 107 % of control and 124 % of control | dose: 30.0 mg/kg/injection, schedule: Q01DX001 (ip), vehicle: saline 105 % of control

Cc1ccc(NC(=S)Nc2ccc(Cc3ccc(NC(=S)Nc4ccc(C)cc4)cc3)cc2)cc1
inactive: dose: 100.0 mg/kg/injection, schedule: Q04DX002 (ip), vehicle: saline with Tween-80 98 % of control | dose: 200.0 mg/kg/injection, schedule: Q04DX002 (ip), vehicle: saline with Tween-80 103 % of control | dose: 400.0 mg/kg/injection, schedule: Q04DX002 (ip), vehicle: saline with Tween-80 88 % of control

CC(C)=CCNc1ncnc2c(C3OC(CO)C(O)C3O)[nH]nc12 (configuration not stated)
inactive: dose: 100.0 mg/kg/injection, schedule: Q01DX005 (ip), vehicle: saline 95 % of control | dose: 200.0 mg/kg/injection, schedule: Q01DX005 (ip), vehicle: saline 95 % of control

From PubChem BioAssay AID248 (DTP/NCI, 2004)
